Measurements reported in US12054449B2, “Phenylcarbamate crystalline form and method for manufacturing the same” (BIO-PHARM SOLUTIONS CO., LTD., priority 2021, dated 2024).

What was measured:
Assay type in all cases: physicochemical
[1] = Log D (shake flask at pH 5) and Log P
[2] = Polymorphic screening with solvents and solvent/antisolvent
[3] = Competitive slurry experiment for Pattern 1 and Pattern 3; details: competitive slurries in DIPE and heptane, room temperature and 50° C.
Experimental: To investigate the relative thermodynamic stability of various crystalline form patterns at room temperature and 50° C., competitive slurry experiments were carried out.
A mixture of Pattern 1 and Pattern 3 (ED01748-028-003-00, 4×20 mg) was dispensed into vials. They were treated with 250 μL of a saturated solution of Pattern 1 (ED01748-006-001-00) in DIPE or heptane (50 mg of ED01748-006-001-00 was treated with DIPE or heptane and heated at 50° C., a portion was removed as needed, and the resulting product was filtered through a 0.45 μm syringe filter, thereby forming a slurry). The produced slurry was stirred at room temperature or 50° C. After analysis, the solid was returned to the vial, and an additional saturated solution was added as needed to maintain the slurry. After 4 days, the purity of the material was confirmed by UPLC.

C[C@H](OC(N)=O)[C@@H](O)c1ccccc1Cl [ED01748-006-001-00, 1-(2-chlorophenyl)-(S)-1-hydroxypropyl-(S)-2-carbamate]
logP [1]: 1.32
logD ([1]; shake flask): 1.32
Result ([2]; Exp. 1, 2-propanol 60 ul / Toluene 100 ul, Shaken RT, refrigerated): Soluble
Initial result ([2]; Exp. 1, solvent 2-propanol 60 ul, anti-solvent Toluene 100 ul): Soluble
Result ([2]; Exp. 2, 2-propanol 60 ul / Heptane 200 ul, Shaken RT, refrigerated): Soluble
Initial result ([2]; Exp. 2, solvent 2-propanol 60 ul, anti-solvent Heptane 200 ul): Soluble
Result ([2]; Exp. 3, 2-propanol 60 ul / Diethyl ether 100 ul, Shaken RT, refrigerated): Soluble
Initial result ([2]; Exp. 3, solvent 2-propanol 60 ul, anti-solvent Diethyl ether 100 ul): Soluble
Result ([2]; Exp. 4, 2-propanol 60 ul / TBME 200 ul, Shaken RT, refrigerated): Soluble
Initial result ([2]; Exp. 4, solvent 2-propanol 60 ul, anti-solvent TBME 200 ul): Soluble
Result ([2]; Exp. 5, acetone 60 ul / Toluene 100 ul, Shaken RT, refrigerated): Soluble
Initial result ([2]; Exp. 5, solvent acetone 60 ul, anti-solvent Toluene 100 ul): Soluble
Result ([2]; Exp. 6, acetone 60 ul / Heptane 175 ul, notes: oil): oil
Initial result ([2]; Exp. 6, solvent acetone 60 ul, anti-solvent Heptane 175 ul): Cloudy
Result ([2]; Exp. 7, acetone 60 ul / Diethyl ether 100 ul, Shaken RT, refrigerated): Soluble
Initial result ([2]; Exp. 7, solvent acetone 60 ul, anti-solvent Diethyl ether 100 ul): Soluble
Result ([2]; Exp. 8, acetone 60 ul / TBME 100 ul, Shaken RT, refrigerated): Soluble
Initial result ([2]; Exp. 8, solvent acetone 60 ul, anti-solvent TBME 100 ul): Soluble
Result: crystalline form obtained (XRPD) ([2]; Exp. 9, chloroform 60 ul / Toluene 100 ul): Pattern 9
Result ([2]; Exp. 9, chloroform 60 ul / Toluene 100 ul, Shaken RT, solid XRPD): Crystalline
Initial result ([2]; Exp. 9, solvent chloroform 60 ul, anti-solvent Toluene 100 ul): Precipitate
Result: crystalline form obtained (XRPD) ([2]; Exp. 10, chloroform 60 ul / Heptane 25 ul): Pattern 8
Result ([2]; Exp. 10, chloroform 60 ul / Heptane 25 ul, Shaken RT, solid XRPD): Crystalline
Initial result ([2]; Exp. 10, solvent chloroform 60 ul, anti-solvent Heptane 25 ul): Precipitate
Result ([2]; Exp. 11, chloroform 60 ul / Diethyl ether 100 ul, Shaken RT, refrigerated): Soluble
Initial result ([2]; Exp. 11, solvent chloroform 60 ul, anti-solvent Diethyl ether 100 ul): Soluble
Result ([2]; Exp. 12, chloroform 60 ul / TBME 100 ul, Shaken RT, refrigerated): Soluble
Initial result ([2]; Exp. 12, solvent chloroform 60 ul, anti-solvent TBME 100 ul): Soluble
Result: crystalline form obtained (XRPD) ([2]; Exp. 13, DCM 80 ul / Toluene 100 ul): Pattern 9
Result ([2]; Exp. 13, DCM 80 ul / Toluene 100 ul, Shaken RT, solid XRPD): Crystalline
Initial result ([2]; Exp. 13, solvent DCM 80 ul, anti-solvent Toluene 100 ul): Precipitate
Result ([2]; Exp. 14 (second line so numbered), DCM 80 ul / Diethyl ether 100 ul, Shaken RT, refrigerated): Soluble
Initial result ([2]; Exp. 14 (second line so numbered), solvent DCM 80 ul, anti-solvent Diethyl ether 100 ul): Soluble
Result: crystalline form obtained (XRPD) ([2]; Exp. 14, DCM 80 ul / Heptane 50 ul): Pattern 8
Result ([2]; Exp. 14, DCM 80 ul / Heptane 50 ul, Shaken RT, solid XRPD): Crystalline
Initial result ([2]; Exp. 14, solvent DCM 80 ul, anti-solvent Heptane 50 ul): Precipitate
Result ([2]; Exp. 16, DCM 80 ul / TBME 100 ul, Shaken RT, refrigerated): Soluble
Initial result ([2]; Exp. 16, solvent DCM 80 ul, anti-solvent TBME 100 ul): Soluble
Result: crystalline form obtained (XRPD) ([2]; Exp. 18, ethyl acetate 60 ul / Heptane 100 ul): Pattern 11
Result ([2]; Exp. 18, ethyl acetate 60 ul / Heptane 100 ul, Oil, then solid formed): Crystalline
Initial result ([2]; Exp. 18, solvent ethyl acetate 60 ul, anti-solvent Heptane 100 ul): Cloudy
Result ([2]; Exp. 19, ethyl acetate 60 ul / Diethyl ether 100 ul, Shaken RT, refrigerated): Soluble
Initial result ([2]; Exp. 19, solvent ethyl acetate 60 ul, anti-solvent Diethyl ether 100 ul): Soluble
Result ([2]; Exp. 20, ethyl acetate 60 ul / TBME 100 ul, Shaken RT, refrigerated): Soluble
Initial result ([2]; Exp. 20, solvent ethyl acetate 60 ul, anti-solvent TBME 100 ul): Soluble
Result ([2]; Exp. 21, ethyl acetate 60 ul / Pentane 225 ul, notes: Oil): Oil
Initial result ([2]; Exp. 21, solvent ethyl acetate 60 ul, anti-solvent Pentane 225 ul): Cloudy
Result ([2]; Exp. 22, ethyl acetate 60 ul / cyclohexane 350 ul, Shaken RT, solid XRPD): Crystalline,
Initial result ([2]; Exp. 22, solvent ethyl acetate 60 ul, anti-solvent cyclohexane 350 ul): Precipitate
Result ([2]; Exp. 23, ethyl acetate 60 ul / methylcyclohexane 325 ul, Shaken RT, solid XRPD): Crystalline,
Initial result ([2]; Exp. 23, solvent ethyl acetate 60 ul, anti-solvent methylcyclohexane 325 ul): Precipitate
Result ([2]; Exp. 24, chloroform 60 ul / Pentane 75 ul, Shaken RT, solid XRPD): Crystalline
Initial result ([2]; Exp. 24, solvent chloroform 60 ul, anti-solvent Pentane 75 ul): Precipitate
Result ([2]; Exp. 25, chloroform 60 ul / cyclohexane 125 ul, Shaken RT, solid XRPD): Crystalline
Initial result ([2]; Exp. 25, solvent chloroform 60 ul, anti-solvent cyclohexane 125 ul): Precipitate
Result ([2]; Exp. 26, chloroform 60 ul / methylcyclohexane 75 ul, Shaken RT, solid XRPD): Crystalline
Initial result ([2]; Exp. 26, solvent chloroform 60 ul, anti-solvent methylcyclohexane 75 ul): Precipitate
Result ([2]; Exp. 27, DCM 80 ul / Pentane 100 ul, Shaken RT, solid XRPD): Crystalline
Initial result ([2]; Exp. 27, solvent DCM 80 ul, anti-solvent Pentane 100 ul): Precipitate
Result ([2]; Exp. 28, DCM 80 ul / cyclohexane 50 ul, Shaken RT, solid XRPD): Crystalline
Initial result ([2]; Exp. 28, solvent DCM 80 ul, anti-solvent cyclohexane 50 ul): Precipitate
Result ([2]; Exp. 29, DCM 80 ul / methylcyclohexane 50 ul, Shaken RT, solid XRPD): Crystalline
Initial result ([2]; Exp. 29, solvent DCM 80 ul, anti-solvent methylcyclohexane 50 ul): Precipitate
Result ([2]; Exp. number not given, ethyl acetate 60 ul / Toluene 100 ul, Shaken RT, refrigerated): Soluble
Initial result ([2]; Exp. number not given, solvent ethyl acetate 60 ul, anti-solvent Toluene 100 ul): Soluble
Relative thermodynamic stability [3]: more thermodynamically stable than Pattern 3
